Read-outs that look alike come from different tables or passages of the source.
Target: T1, human BACE1 (sproBACE1) (Homo sapiens, UniProt P56817)
T1 construct: sBACE1, corresponding to amino acids 1-454; made in house; host or cells: Sf9 insect cells (baculovirus), secreted into the medium
Test: BACE-1 Peptide Hydrolysis Assay (HTRF)
Type: biochemical
Procedure, shortened: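 Secreted sBACE1-myc/His from baculovirus-infected sf9 cells, purified on Q-sepharose then Ni-NTA. Substrate-initiated reactions ran 3 hr at 30° C., then were stopped with KF buffer (pH 8.0) containing SA-XL665 for HTRF read-out. EC50 was fitted by sigmoidal dose-response to percent change in ratio.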

T1 sequence (P56817 22-454): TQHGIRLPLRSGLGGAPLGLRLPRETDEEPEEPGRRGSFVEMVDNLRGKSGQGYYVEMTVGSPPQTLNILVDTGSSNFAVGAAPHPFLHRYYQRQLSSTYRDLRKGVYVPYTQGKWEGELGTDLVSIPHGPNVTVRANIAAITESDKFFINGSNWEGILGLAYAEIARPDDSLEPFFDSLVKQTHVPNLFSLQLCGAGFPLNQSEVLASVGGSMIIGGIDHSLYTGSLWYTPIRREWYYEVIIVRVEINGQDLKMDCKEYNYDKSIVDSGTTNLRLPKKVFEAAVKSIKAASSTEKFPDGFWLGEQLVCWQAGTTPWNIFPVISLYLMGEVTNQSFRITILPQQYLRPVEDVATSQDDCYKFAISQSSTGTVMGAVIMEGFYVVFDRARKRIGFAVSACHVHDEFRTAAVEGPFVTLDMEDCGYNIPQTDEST

SMILES	Ki (read-out: BACE-1 Ki)	Ki
CN1C(=N)N[C@](C)(c2scc(C#N)c2Cl)CC1=O	< 5 µM	–
CN1C(=N)N[C@](C)(C[C@H]2CCC[C@@H](Nc3cnccn3)C2)C1=O	< 5 µM	–
CN1C(=N)NC(c2ccccc2)(c2cc(-c3ccc4c(c3)OCO4)cs2)C1=O (stereo not drawn)	< 5 µM	–
CN1C(=N)NC(c2cccc(-c3cncc(Br)c3)c2)(C2(C)CC2)C1=O (stereo not drawn)	< 5 µM	–
CN1OCC(C)(c2cc(-c3ccc(F)c(C#N)c3)cs2)NC1=N (stereo not drawn)	< 5 µM	–
CN1C(=N)NC(C)(c2cc(-c3cccc(C#N)c3)cs2)C(CC#N)C1=O (mixture of isomers)	< 5 µM	–
CN1C(=N)N[C@](C)(c2csc3c(-c4ccccc4)cccc23)CC1=O	< 5 µM	–
COc1ccc(Cl)c(-c2cc([C@]3(C)CC(=O)N(C)C(=N)N3)cc3ccsc23)c1	< 5 µM	–
CC(=O)N1CCC(CN2C(=N)NC(C)(c3cccc(-c4cn[nH]c4)c3)C2=O)CC1 (stereo not drawn)	–	< 5 µM
CN1C(=N)NC(c2ccccc2)(c2cccc(NS(=O)(=O)c3ccccc3)c2)C1=O (racemic)	< 5 µM	–
CN1C(=N)N[C@](CCc2ccccc2)(C[C@H]2CCC[C@@H](NC3CCCCC3)C2)C1=O	< 5 µM	–
Cc1cc([C@]2(C)CC(=O)N(C)C(=N)N2)sc1-c1cccc(OC(F)(F)F)c1	< 5 µM	–
CN1C(=N)N[C@](CCc2ccccc2)(C[C@H]2CCC[C@@H](NC(=O)c3ccncc3)C2)C1=O	< 5 µM	–
CCCn1ncc2ccc([C@]3(C)CC(=O)N(C)C(=N)N3)cc21	< 5 µM	–
CN1C(=N)NC(C)(c2cccc(-c3cc(Cl)ccc3CNC(=O)c3cccnc3)c2)C1=O (stereo not drawn)	< 5 µM	–
CN1C(=N)N[C@](C)(c2ccc3nn(CC4CCCCC4)cc3c2)CC1=O	< 5 µM	–
CN1C(=N)N[C@](C)(c2cc(-c3cc(Cl)cc(C#N)c3)cs2)[C@H](C2CC2)C1=O	< 5 µM	–
COc1ccc([C@H]2C(=O)N(C)C(=N)N[C@]2(C)c2cncs2)cc1	< 5 µM	–
CN1C(=N)N[C@](C)(c2cc(-c3cc(F)cc(C#N)c3)nn2C)CC1=O	< 5 µM	–
CC(=O)N1CCC(CN2C(=N)NC(C)(c3cccc(-c4cccc(C(=O)NCc5ccco5)c4)c3)C2=O)CC1 (stereo not drawn)	< 5 µM	–
CN1C(=N)N[C@](C)(c2cnc[nH]2)[C@@H](c2cccc(C(C)(F)F)c2)C1=O	< 5 µM	–

SMILES	Ki (read-out: BACE-1 Ki)	Ki
CN1C(=N)NC(C)(c2cc(-c3cccc(C#N)c3)cs2)C(CC=Cc2cccc(F)c2)C1=O (stereo not drawn)	< 5 µM	–
CSc1cccc(-c2csc([C@]3(C)CC(=O)N(C)C(=N)N3)c2)c1	< 5 µM	–
COc1cccc(-c2cccc(C3(C)CON(C)C(=N)N3)c2)c1 (stereo not drawn)	< 5 µM	–
CCCN(CCC)C(=O)c1ncc(CN2C(=N)NC(c3ccccc3)(c3ccccc3)C2=O)[nH]1	< 5 µM	–
COC1C(=O)N(C)C(=N)NC1(C)c1cc(-c2ccc(F)c(C#N)c2)cs1 (single isomer, unassigned)	< 5 µM	–
CN1C(=N)NC(C)(c2cc(-c3cccc(C#N)c3)cs2)C(CCCc2ccccc2)(n2cccn2)C1=O (stereo not drawn)	< 5 µM	–
CN1C(=N)NC(C)(c2cc(-c3cccc(C#N)c3)cs2)C(CCN2CCCCC2)C1=O (stereo not drawn)	< 5 µM	–
CN1C(=N)N[C@](C)(c2ccc(F)cc2F)[C@@H](C2CCN(c3ccc(F)cc3)CC2)C1=O	< 5 µM	–
CN1C(=N)N[C@](C)(c2ccc3c(Br)n[nH]c3c2)CC1=O	< 5 µM	–
CN1C(=N)N[C@](C)(c2ccc(F)cc2F)CC1=O	< 5 µM	–
C[C@H]1C(=O)N(C)C(=N)N[C@]1(C)c1cc(-c2cc(Cl)cc(C#N)c2)cs1	< 5 µM	–
CN1C(=N)N[C@](C)(c2cccc(N3CCCC3)c2)CC1=O	< 5 µM	–
COCC1CCCN1C(=O)c1cncc(CN2C(=N)NC(c3cccc(Br)c3)(C3CC3)C2=O)c1 (stereo not drawn)	< 5 µM	–
N=C1NC(c2cccc(-c3cccc(Cl)c3)c2)(C2CC2)C(=O)N1C(CO)CO (stereo not drawn) [4-imidazolidinone, 5-(3′-chloro[1,1′-biphenyl]-3-yl)-5-cyclopropyl-3-[2-hydroxy-1-(hydroxymethyl)ethyl]-2-imino-]	< 5 µM	–
CN1C(=N)N[C@](C)(c2cc(-c3cccc(C#N)c3)c(C3=CCN(c4ccccc4)CC3)s2)CC1=O	< 5 µM	–
CN1C(=N)N[C@@](c2cccc(-c3cccc(CO)c3)c2)(C2CC2)C1=O	< 5 µM	–
CC(C)(C)CC(=O)Nc1cccc(CN2C(=N)NC(c3ccccc3)(c3ccccc3)C2=O)c1	< 5 µM	–
CCCN(CCC)C(=O)CCCCN1C(=N)NC(c2ccccc2)(c2ccccc2)C1=O	< 5 µM	–
C[C@@]1(c2ccc3sccc3c2)CC(=O)N(CCO)C(=N)N1	< 5 µM	–
COc1ccccc1C(=O)N[C@@H]1CCC[C@H](C[C@@]2(CCC3CCCCC3)NC(=N)N(C)C2=O)C1	< 5 µM	–
Cc1cncc(-c2cccc(C3(C)NC(=N)N(C)C3=O)c2)c1 (racemic)	< 5 µM	–

SMILES	Ki (read-out: BACE-1 Ki)	Ki
CCN(CCc1cccc(C2(c3ccccc3)NC(=N)N(C)C2=O)c1)C(C)=O (racemic)	< 5 µM	–
C[C@H]1C(=O)N(C)C(=N)N[C@]1(C)c1cc(-c2cc(C#N)cc(C#N)c2)cs1	< 5 µM	–
CN1C(=N)N[C@](C)(c2cc(-c3cc(C#N)cc(C#N)c3)nn2C)CC1=O	< 5 µM	–
CN1C(=N)N[C@](C)(c2ccc3scc(-c4ccc(C#N)s4)c3c2)CC1=O	< 5 µM	–
CN1C(=N)NC(C)(c2cccc(-c3cc(Cl)ccc3CCOC=O)c2)C1=O (stereo not drawn)	< 5 µM	–
CCS(=O)(=O)Nc1ccc(CN2C(=N)NC(c3ccccc3)(c3ccccc3)C2=O)cc1 [ethanesulfonamide, N-[4-[(2-imino-5-oxo-4,4-diphenyl-1-imidazolidinyl)methyl]phenyl]-]	< 5 µM	–
CN1OCC(C)(c2cc(-c3cccc(C#N)c3)cs2)NC1=N (stereo not drawn)	< 5 µM	–
CN1OCC(C)(c2cccc(-c3cccc(Cl)c3)c2)NC1=N (stereo not drawn)	< 5 µM	–
CCc1csc([C@]2(C)CC(=O)N(C)C(=N)N2)c1	< 5 µM	–
CN1C(=N)NC(c2ccccc2)(c2cccc(NC(=O)c3ccccc3)c2)C1=O (racemic)	< 5 µM	–
N=C1NC(c2ccccc2)(c2ccccc2)C(=O)N1CC1CCN(C(=O)C2(c3ccccc3)CC2)CC1	< 5 µM	–
Cc1ccc(-c2csc([C@]3(C)CC(=O)N(C)C(=N)N3)c2)cc1C#N	< 5 µM	–
CC1(c2cccc(-c3cccc(Cl)c3)c2)NC(=N)N(CC2CCN(C(=O)C3CCCCC3)C2)C1=O (stereo not drawn)	< 5 µM	–
CCC[C@H]1C(=O)N(C)C(=N)N[C@]1(C)c1cc(-c2cccc(C#N)c2)cs1	< 5 µM	–
CCC(C)N1C(=N)NC(c2cccc(-c3cccc(Cl)c3)c2)(C2CC2)C1=O (stereo not drawn) [4-imidazolidinone, 5-(3′-chloro[1,1′-biphenyl]-3-yl)-5-cyclopropyl-2-imino-3-(1-methylpropyl)-]	< 5 µM	–
CN1C(=N)NC(c2cc(-c3cncc(Cl)c3)cs2)(C2CC2)C1=O (stereo not drawn)	< 5 µM	–
CN1C(=N)N[C@](C)(c2cccc(N3CCCCC3)c2)CC1=O	< 5 µM	–
N=C1NC(c2cccc(-c3cccc(Cl)c3)c2)(C2CC2)C(=O)N1C1CCC1 (stereo not drawn) [4-imidazolidinone, 5-(3′-chloro[1,1′-biphenyl]-3-yl)-3-cyclobutyl-5-cyclopropyl-2-imino-]	< 5 µM	–
CN1C(=N)NC(c2ccccc2)(c2cc(-c3cncnc3)cs2)C1=O (stereo not drawn)	< 5 µM	–
Cc1ccc(CN2C(=N)NC(c3ccccc3)(c3ccccc3)C2=O)cc1	< 5 µM	–
Cc1cc([C@]2(C)CC(=O)N(C)C(=N)N2)sc1-c1cccc(C#N)c1	< 5 µM	–

SMILES	Ki (read-out: BACE-1 Ki)	Ki
CN1C(=N)N[C@](C)(c2cc(-c3cncnc3)cs2)CC1=O	< 5 µM	–
CCc1sc([C@@]2(C)NC(=N)N(C)C(=O)[C@@H]2CC)cc1-c1cccc(C#N)c1	< 5 µM	–
N=C1NC(c2ccccc2)(c2ccccc2)C(=O)N1CC1CCN(c2ccc3ccccc3n2)CC1	< 5 µM	–
CN1C(=N)NC(C)(c2cccc(-c3cc(Cl)ccc3CCO)c2)C1=O (stereo not drawn)	< 5 µM	–
CN1C(=N)N[C@@](C[C@H]2CCC[C@@H](Nc3ccc4ccccc4n3)C2)(C2CC2)C1=O	< 5 µM	–
CN1C(=N)N[C@](C)(c2sccc2Cl)CC1=O	< 5 µM	–
CN1C(=N)N[C@](CCC2CCCCC2)(C[C@H]2CCC[C@H](NCCc3ccccc3)C2)C1=O	< 5 µM	–
CN1C(=N)N[C@](C)(c2ccc3c(ccn3C)c2)CC1=O	< 5 µM	–
CN1C(=N)N[C@](C)(c2cc(-c3cc(Br)cc(C#N)c3)cs2)CC1=O	< 5 µM	–
CN1C(=N)NC(c2ccccc2)(c2cccc(NCc3ccccc3)c2)C1=O (racemic)	< 5 µM	–
CN1C(=N)N[C@](C)(c2nc(-c3cccc(C#N)c3)cs2)CC1=O	< 5 µM	–
CN1C(=N)N[C@](CCC2CCCCC2)(C[C@H]2CCC[C@@H](N(C)C)C2)C1=O	< 5 µM	–
Cc1csc(-c2csc(C3(C4CC4)NC(=N)N(C)C3=O)c2)c1 (stereo not drawn)	< 5 µM	–
N=C1NC(c2ccccc2)(c2ccccc2)C(=O)N1Cc1cccnc1	< 5 µM	–
CN1C(=N)N[C@](C)(c2cc(-c3cccnc3)cs2)CC1=O	< 5 µM	–
CN1C(=N)N[C@@](c2cccc(-c3cc(Cl)cnc3F)c2)(C2CC2)C1=O	< 5 µM	–
CN1C(=N)N[C@](C)(c2ncc(-c3cccc(Cl)c3)s2)CC1=O	< 5 µM	–
CC(C)n1cc([C@H]2C(=O)N(C)C(=N)N[C@]2(C)c2cc(-c3cccc(C#N)c3)cs2)cn1	< 5 µM	–

Reference: patent US8183252B2, “Heterocyclic aspartyl protease inhibitors” (Schering Corporation, priority 2007, dated 2012)
